The source of these data is ChEMBL document CHEMBL4725342, “Design, synthesis and structure-activity relationship study of piperazinone-containing thieno[3,2-d]pyrimidine derivatives as new PI3Kδ inhibitors” (Bioorg Med Chem Lett, 2020).

The structures appear in SMILES notation.

For one test, the species on record is Homo sapiens. Description: Selectivity index, ratio of IC50 for PI3Kalpha (unknown origin) to IC50 for PI3Kdelta (unknown origin).
Test [1] has as its target T1, Phosphatidylinositol 4,5-bisphosphate 3-kinase catalytic subunit delta isoform (Homo sapiens, UniProt O00329).
T1 sequence (O00329 whole entry): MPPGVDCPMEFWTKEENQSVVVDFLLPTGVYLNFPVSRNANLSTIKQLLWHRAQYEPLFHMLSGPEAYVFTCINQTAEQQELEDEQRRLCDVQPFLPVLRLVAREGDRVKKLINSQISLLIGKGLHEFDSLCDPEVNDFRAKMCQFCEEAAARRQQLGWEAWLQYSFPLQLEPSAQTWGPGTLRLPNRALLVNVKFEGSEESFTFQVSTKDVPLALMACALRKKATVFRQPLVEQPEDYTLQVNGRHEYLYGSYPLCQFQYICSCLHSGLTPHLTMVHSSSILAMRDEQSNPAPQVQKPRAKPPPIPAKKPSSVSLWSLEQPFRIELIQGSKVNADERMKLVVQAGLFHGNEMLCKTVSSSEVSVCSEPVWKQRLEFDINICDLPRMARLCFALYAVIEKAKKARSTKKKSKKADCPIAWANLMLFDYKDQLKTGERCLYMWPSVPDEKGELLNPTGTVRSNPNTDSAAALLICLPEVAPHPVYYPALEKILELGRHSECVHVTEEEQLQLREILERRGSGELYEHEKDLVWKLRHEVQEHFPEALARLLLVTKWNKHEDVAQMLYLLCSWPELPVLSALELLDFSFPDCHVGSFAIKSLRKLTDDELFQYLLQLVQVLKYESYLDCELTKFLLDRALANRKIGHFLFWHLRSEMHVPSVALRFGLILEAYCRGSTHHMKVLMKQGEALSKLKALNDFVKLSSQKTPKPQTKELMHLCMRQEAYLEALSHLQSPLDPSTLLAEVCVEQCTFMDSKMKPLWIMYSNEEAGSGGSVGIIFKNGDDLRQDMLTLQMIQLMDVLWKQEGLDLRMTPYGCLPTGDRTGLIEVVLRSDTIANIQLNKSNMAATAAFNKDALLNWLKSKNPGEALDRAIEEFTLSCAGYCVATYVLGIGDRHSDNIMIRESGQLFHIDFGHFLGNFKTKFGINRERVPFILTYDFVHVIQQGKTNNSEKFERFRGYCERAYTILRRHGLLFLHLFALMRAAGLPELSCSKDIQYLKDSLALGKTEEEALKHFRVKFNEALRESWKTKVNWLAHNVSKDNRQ
Description: Inhibition of PI3Kdelta (unknown origin).

In general, IC50 refers to the concentration at which inhibition is half-maximal. A lower IC50 goes with greater potency in that assay. In the case of `CCc1nc2ccccc2n1-c1nc(N2CCOCC2)c2sc(CN3CCN(S(C)(=O)=O)CC3)cc2n1`, in the test listed under Homo sapiens, the Ratio IC50 stood at 2.4. Moreover, the IC50 in test [1] stood at 4.1 nM.

Regarding `CCc1nc2ccccc2n1-c1nc(N2CCOCC2)c2sc(CN3CCN(C(=O)C4CCCCC4)CC3=O)cc2n1`, the Ratio IC50 in the test filed under Homo sapiens came to 43. This compound had an IC50 in test [1] of 7.9 nM.

`CCc1nc2ccccc2n1-c1nc(N2CCOCC2)c2sc(CN3CCN(CC)C(=O)C3)cc2n1`: the Ratio IC50 in the test listed under Homo sapiens turned out to be 10. The compound also gave an IC50 in test [1] of 4.1 nM.

For `CCc1nc2ccccc2n1-c1nc(N2CCOCC2)c2sc(CN3CCNC(=O)C3)cc2n1`, in the test listed under Homo sapiens, the Ratio IC50 came out at 13. The compound also gave an IC50 in test [1] of 20 nM.

`CCc1nc2ccccc2n1-c1nc(N2CCOCC2)c2sc(CN3CCN(C(=O)[C@H](C)O)CC3=O)cc2n1`: the Ratio IC50 in the test listed under Homo sapiens came to 49. The IC50 in test [1] came out at 3.6 nM.

Turning to `CCc1nc2ccccc2n1-c1nc(N2CCOCC2)c2sc(CN3CCN(C(=O)OC(C)(C)C)CC3=O)cc2n1`, the Ratio IC50 in the test filed under Homo sapiens was determined as 52. In addition, in test [1], it took 12 nM to reach half-maximal inhibition (IC50).

Turning to `CCc1nc2ccccc2n1-c1nc(N2CCOCC2)c2sc(CN3CCN(CC(=O)N4CCOCC4)C(=O)C3)cc2n1`, in the test filed under Homo sapiens, the Ratio IC50 is 11. It took 15 nM to reach half-maximal inhibition in test [1] (IC50).

On to `CCc1nc2ccccc2n1-c1nc(N2CCOCC2)c2sc(CN3CCN(CC(N)=O)CC3=O)cc2n1`, for which, in the test filed under Homo sapiens, the Ratio IC50 was determined as 25. Also, in test [1], the IC50 worked out at 6.2 nM.

For `CCc1nc2ccccc2n1-c1nc(N2CCOCC2)c2sc(CN3CCN(S(=O)(=O)CC)CC3=O)cc2n1`, the Ratio IC50 in the test filed under Homo sapiens was 10. For the same compound, the IC50 in test [1] is 4.4 nM.

In the case of `CCc1nc2ccccc2n1-c1nc(N2CCOCC2)c2sc(CN3CCN(C4CCN(C)CC4)CC3=O)cc2n1`, the Ratio IC50 in the test listed under Homo sapiens is 25. In addition, in test [1], the half-inhibitory concentration (IC50) was determined as 15 nM.

`CCc1nc2ccccc2n1-c1nc(N2CCOCC2)c2sc(CN3CCN(C4CCC5(CC4)OCCO5)CC3=O)cc2n1`: in the test filed under Homo sapiens, the Ratio IC50 was found to be 13. For the same compound, in test [1], the midpoint of inhibition, the IC50, lay at 2.2 nM.

`CCc1nc2ccccc2n1-c1nc(N2CCOCC2)c2sc(CN3CCN(C4CCC(N5CCCC5)CC4)CC3=O)cc2n1` (stereo not given): the Ratio IC50 in the test filed under Homo sapiens was found to be 8. It took 14 nM to reach half-maximal inhibition in test [1] (IC50).

Take `CCc1nc2ccccc2n1-c1nc(N2CCOCC2)c2sc(CN3CCN(C4CCOCC4)CC3=O)cc2n1`: the Ratio IC50 in the test listed under Homo sapiens turned out to be 61. For the same compound, in test [1], the IC50 turned out to be 6.2 nM.

With `CCc1nc2ccccc2n1-c1nc(N2CCOCC2)c2sc(CN3CCN(C4CCSCC4)CC3=O)cc2n1`, the Ratio IC50 in the test listed under Homo sapiens was found to be 56. The 50% inhibitory concentration (IC50) in test [1] came out at 4.8 nM.

Turning to `CCc1nc2ccccc2n1-c1nc(N2CCOCC2)c2sc(CN3CCN(C4CCC(N(C)C)CC4)CC3=O)cc2n1` (stereo not given), the Ratio IC50 in the test listed under Homo sapiens is 36. Also, the IC50 in test [1] amounted to 14 nM.

Take `CCc1nc2ccccc2n1-c1nc(N2CCOCC2)c2sc(CN3CCN(C(C)C)CC3=O)cc2n1`: the Ratio IC50 in the test listed under Homo sapiens worked out at 53. In test [1], the IC50 came to 2.1 nM.

With `CCc1nc2ccccc2n1-c1nc(N2CCOCC2)c2sc(CN3CCN(C(C)=O)CC3=O)cc2n1`, the Ratio IC50 in the test listed under Homo sapiens worked out at 35. Also, the IC50 in test [1] was 3.2 nM.

For the compound `CCc1nc2ccccc2n1-c1nc(N2CCOCC2)c2sc(CN3CCN(C(=O)C4CCCC4)CC3=O)cc2n1`, in the test filed under Homo sapiens, the Ratio IC50 worked out at 95. In test [1], this compound had an IC50 of 2 nM.

On to `CCc1nc2ccccc2n1-c1nc(N2CCOCC2)c2sc(CN3CCN(c4nccs4)C(=O)C3)cc2n1`, for which the Ratio IC50 in the test filed under Homo sapiens came to 7.7. The same compound came in with an IC50 in test [1] of 2.1 nM.

Take `CCc1nc2ccccc2n1-c1nc(N2CCOCC2)c2sc(CN3CCN(CC4CC4)CC3=O)cc2n1`: in the test listed under Homo sapiens, the Ratio IC50 was 64. Besides, the IC50 in test [1] is 6.3 nM.

In the case of `CCc1nc2ccccc2n1-c1nc(N2CCOCC2)c2sc(CN3CCN(C)C(=O)C3)cc2n1`, the Ratio IC50 in the test listed under Homo sapiens is 53. In test [1], this compound displayed an IC50 of 4.9 nM.

As for `CCc1nc2ccccc2n1-c1nc(N2CCOCC2)c2sc(CN3CCN(c4cccnc4)C(=O)C3)cc2n1`, in the test filed under Homo sapiens, the Ratio IC50 came to 12. This compound came in with an IC50 in test [1] of 13 nM.

`CCCS(=O)(=O)N1CCN(Cc2cc3nc(-n4c(CC)nc5ccccc54)nc(N4CCOCC4)c3s2)C(=O)C1`: the Ratio IC50 in the test filed under Homo sapiens was determined as 4. For the same compound, the IC50 in test [1] turned out to be 3.5 nM.

In the case of `CCc1nc2ccccc2n1-c1nc(N2CCOCC2)c2sc(CN3CCN(CC(N)=O)C(=O)C3)cc2n1`, the Ratio IC50 in the test filed under Homo sapiens is 7.1. In test [1], this compound yielded an IC50 of 12 nM.

Take `CCc1nc2ccccc2n1-c1nc(N2CCOCC2)c2sc(CN3CCN(C4CCCCC4)CC3=O)cc2n1`: in the test listed under Homo sapiens, the Ratio IC50 was 21. This compound came in with an IC50 in test [1] of 12 nM.

Regarding `CCc1nc2ccccc2n1-c1nc(N2CCOCC2)c2sc(CN3CCN(c4cnn(C)c4)C(=O)C3)cc2n1`, the Ratio IC50 in the test filed under Homo sapiens worked out at 24. This compound also showed an IC50 in test [1] of 3.4 nM.

For `CCc1nc2ccccc2n1-c1nc(N2CCOCC2)c2sc(CN3CCN(S(=O)(=O)C4CC4)CC3=O)cc2n1`, the Ratio IC50 in the test filed under Homo sapiens came to 38. In addition, in test [1], the IC50 was found to be 1.2 nM.

Turning to `CCc1nc2ccccc2n1-c1nc(N2CCOCC2)c2sc(CN3CCN(C4CCC(O)CC4)C(=O)C3)cc2n1` (stereo not given), in the test listed under Homo sapiens, the Ratio IC50 was found to be 7.7. The compound further displayed an IC50 in test [1] of 5.7 nM.

As for `CCc1nc2ccccc2n1-c1nc(N2CCOCC2)c2sc(CN3CCN(S(=O)(=O)C4CC4)CC3)cc2n1`, the Ratio IC50 in the test listed under Homo sapiens came to 13. For the same compound, the IC50 in test [1] turned out to be 4.8 nM.

With `CCc1nc2ccccc2n1-c1nc(N2CCOCC2)c2sc(CN3CCN([C@H]4CC[C@H](O)CC4)C(=O)C3)cc2n1`, in the test listed under Homo sapiens, the Ratio IC50 came to 35. In test [1], this compound yielded an IC50 of 2.1 nM.

The compound `CCc1nc2ccccc2n1-c1nc(N2CCOCC2)c2sc(CN3CCN(C4CCC(=O)CC4)CC3=O)cc2n1` had an IC50 in test [1] of 1.6 nM.

As to `CCc1nc2ccccc2n1-c1nc(N2CCOCC2)c2sc(CN3CCN(CC(F)(F)F)CC3=O)cc2n1`, in the test filed under Homo sapiens, the Ratio IC50 was 32. In test [1], 6.3 nM corresponded to half-maximal inhibition (IC50).

On to `C=CC(=O)N1CCN(Cc2cc3nc(-n4c(CC)nc5ccccc54)nc(N4CCOCC4)c3s2)C(=O)C1`, for which, in the test listed under Homo sapiens, the Ratio IC50 is 43. In test [1], this compound had an IC50 of 2.9 nM.

In the case of `CCc1nc2ccccc2n1-c1nc(N2CCOCC2)c2sc(CN3CCN(S(C)(=O)=O)CC3=O)cc2n1`, the Ratio IC50 in the test filed under Homo sapiens turned out to be 10. In test [1], this compound yielded a 50% inhibitory concentration (IC50) of 2.2 nM.

In the case of `CCc1nc2ccccc2n1-c1nc(N2CCOCC2)c2sc(CN3CCN(C4CCC(F)(F)CC4)CC3=O)cc2n1`, the Ratio IC50 in the test filed under Homo sapiens is 71. In addition, the midpoint of inhibition in test [1], the IC50, lay at 3.8 nM.

`CCc1nc2ccccc2n1-c1nc(N2CCOCC2)c2sc(CN3CCN(CC4CC4)C(=O)C3)cc2n1`: the Ratio IC50 in the test filed under Homo sapiens amounted to 49. Further, in test [1], the concentration for half-maximal inhibition (IC50) stood at 2.5 nM.

On to `CCc1nc2ccccc2n1-c1nc(N2CCOCC2)c2sc(CN3CCN(C4CCCC4)CC3)cc2n1`, for which, in the test listed under Homo sapiens, the Ratio IC50 came out at 31. The compound further displayed an IC50 in test [1] of 42 nM.

Take `CCc1nc2ccccc2n1-c1nc(N2CCOCC2)c2sc(CN3CCN(C)CC3=O)cc2n1`: in the test listed under Homo sapiens, the Ratio IC50 turned out to be 7.7. Besides, the IC50 in test [1] was determined as 4.5 nM.
